The target in experiment [1] is T1, TRP-M8 receptor (Homo sapiens, UniProt Q7Z2W7). As to the kind of experiment: FLIPR calcium influx assay in HEK cells transfected with human TRP-M8. In kind it is cell-based. Further details: expressed in transfected cells; host or cells: HEK (human embryonic kidney) cells, permanently transfected. The note with it: HEK cells with human TRP-M8, Fura-2, 29 or 37° C. The source says:
(§1) Cooling Actions on Skin. […] In Vitro Assays for TRP-M8 Activation. […] Brit. J Pharmacol. 2004 Feb; 141(4):737-45], and by A. K. Vogt-Eisele, D. Bura, H. Hatt, and E. T. Wei. [N-Alkylcarboxamide Cooling Agents: Activities on Skin and Cells with TRPM8 and TRPA1 Receptors. Acta Dermato-Venereol. 85: 468, 2005.] The data here were collected for the applicant by Dr. Afrodite Lourbakos of Unilever Research and Development, the Netherlands, using similar transfection methods and a FLIPR assay system. For the patch-clamp studies, using measurements of intracellular voltage changes, some of the data reported here were collected by Dr. Matthias Bödding of the University of the Saarland, and by Dr. Angela Vogt-Eisele of the Ruhr University at Bochum, Germany. FLIPR assay Human embryonic kidney (HEK) cells were permanently trausfected with plasmids containging the cDNA coding for the gene for the human TRP-M8 receptor. These cells were then incubated with a calcium fluorescence indicator (Fura-2) and incubated at either 29 or 37° C. These cells were then distributed into a 96-well fluorescence-plate image reader with automated drug dilution and computerized software for dose-response analysis. Cacium ion influx into cells after stimulation with compounds was quantified in fluorescence units. Compounds were dissolved in DMSO by ultrasonication to a 0.1 M solution. 5 μl of this stock was added to 5 mg of cyclodextrin and 5 ml of 140 Na-Tyrode, to achieve various final test concentrations.

For experiment [2], the target named is T1, TRP-M8 receptor. As to the kind of experiment: Patch-clamp whole-cell recordings in TRP-M8 transfected HEK cells. The class given is cell-based. The arrangement: expressed in transfected cells; host or cells: HEK (human embryonic kidney) cells, permanently transfected. The note with it: whole-cell configuration, room temperature (20-23° C.).
Source text: as §1
Patch-Clamp Electrophysiological Recordings. HEK cells were prepared as above. Membrane currents were recorded in the whole-cell configuration using an EPC-9 amplifier (HEKA Elektronik, Lambrecht, Germany) as described previously (Bödding et al. 2002). […] Extracellular solution contained (in mM): 145 NaCl, 2 CaCl2, 2.8 KCl, 2 MgCl2, 11 glucose, 10 HEPES, adjusted to pH 7.2 with NaOH. Drugs were applied in the bath solution by a custom-made local perfusion system. The series resistance was compensated for 80 % and ranged between 5 and 10 MΩ. Currents were filtered using an 8-pole Bessel filter at 2.9 kHz and digitised at 100 μs. Voltage ramps (−110 mV to 90 mV in 50 ms) were applied at 0.5 Hz from a holding potential of −10 mV using PULSE software (HEKA Electronics). Several parameters such as capacitance, series resistance and holding current were monitored simultaneously at a slower rate (2 Hz) using the X-Chart display (HEKA Electronics). A liquid junction potential of 10 mV was applied to all voltages. All experiments were carried out at room temperature (20-23° C.). Internal solutions were kept on ice to minimize hydrolysis of ATP.
(In general: Patch clamp records ionic current or voltage across a cell membrane.)

The results in this text go back to patent US20070053834A1, “Radioligands for the TRP-M8 receptor and methods therewith” (priority 2003, published 2007).

Each structure is given as a SMILES string.

In general, EC50 refers to the midpoint of the concentration-response curve.

T1 sequence (Q7Z2W7 whole entry): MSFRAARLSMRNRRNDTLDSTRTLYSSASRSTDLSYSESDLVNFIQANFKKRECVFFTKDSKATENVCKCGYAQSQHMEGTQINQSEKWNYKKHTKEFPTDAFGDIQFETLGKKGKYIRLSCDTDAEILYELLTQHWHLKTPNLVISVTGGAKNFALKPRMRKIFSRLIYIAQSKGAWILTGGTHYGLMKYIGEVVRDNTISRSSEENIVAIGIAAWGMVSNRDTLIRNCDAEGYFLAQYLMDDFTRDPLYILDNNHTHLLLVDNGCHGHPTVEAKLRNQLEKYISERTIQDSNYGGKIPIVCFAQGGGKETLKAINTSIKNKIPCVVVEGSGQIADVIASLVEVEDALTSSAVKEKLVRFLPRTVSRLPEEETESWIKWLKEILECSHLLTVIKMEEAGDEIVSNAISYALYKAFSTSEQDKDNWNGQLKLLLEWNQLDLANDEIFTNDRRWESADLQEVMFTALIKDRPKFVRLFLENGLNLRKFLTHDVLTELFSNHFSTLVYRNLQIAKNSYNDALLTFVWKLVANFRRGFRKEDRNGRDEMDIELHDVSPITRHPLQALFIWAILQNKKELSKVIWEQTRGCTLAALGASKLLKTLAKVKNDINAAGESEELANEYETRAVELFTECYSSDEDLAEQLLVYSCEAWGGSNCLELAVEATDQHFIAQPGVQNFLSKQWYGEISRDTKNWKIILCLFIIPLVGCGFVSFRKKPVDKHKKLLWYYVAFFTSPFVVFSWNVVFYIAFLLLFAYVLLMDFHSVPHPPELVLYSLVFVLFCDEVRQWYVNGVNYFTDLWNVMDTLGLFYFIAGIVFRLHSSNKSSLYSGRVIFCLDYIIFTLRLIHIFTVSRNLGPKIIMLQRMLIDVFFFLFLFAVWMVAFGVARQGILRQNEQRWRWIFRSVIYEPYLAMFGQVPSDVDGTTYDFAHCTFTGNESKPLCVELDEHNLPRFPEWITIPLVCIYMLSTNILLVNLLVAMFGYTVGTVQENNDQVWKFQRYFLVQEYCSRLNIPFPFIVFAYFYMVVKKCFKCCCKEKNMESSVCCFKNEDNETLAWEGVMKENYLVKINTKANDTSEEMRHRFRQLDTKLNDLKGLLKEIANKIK

As to `O=C1NC(c2cccc([N+](=O)[O-])c2)=CCN1c1ccccc1O` [icilin, reference compound], the values for the EC50 at TRP-M8 receptor [1] and on TRP-M8 receptor [2] were 0.8 µM and 1.4 µM, respectively.
